“And” between values parts separate entries of the source, which are not always exact repeats. Equal entries are not always repeated.
Legend:
[1] = test system: Pseudomonas spec. DSM 115322; test: Minimum inhibitory concentrations and synergy index in Müller-Hinton broth; format: cell-based
Experimental: Test organisms used were Gram-negative bacterial species from the group of pseudomonads, Pseudomonas putida DSM 115323 and Pseudomonas spec. DSM 115322. For this purpose, mixtures with different concentrations of the respective active substances were prepared and tested for their effect on the pseudomonads. The test was run in Müller-Hinton broth MHB with a cell density of 10^6 microbes per ml. When organic acids are used as a combination partner with the guanidine, MHB was adjusted to pH 5.5.
The incubation was run in microplates at 30° C. for 48 hours. After 48 hours, the batches were evaluated for turbidity resulting from growth, and optical density was additionally determined photometrically. In this way, the minimum inhibitory concentrations (MICs) of the two actives were determined individually and in combination.
The calculation was done according to the standard method of F. C. Kull et al., Applied Microbiology, vol. 9 (1961), p. 538.
This involves calculating the synergy index (SI) by the following formula:
[formula] • Qa=concentration of component A in the A+B mixture • QA=concentration of component A as the sole biocide • Qb=concentration of component B in the A+B mixture • QB=concentration of component B as the sole biocide
If the synergy index is greater than 1, this means that there is antagonism. If the synergy index assumes the value 1, this means that the effect of the two biocides/compounds is additive. If the synergy index assumes a value of less than 1, this means that there is synergism between the two biocides/compounds.

bacteria mixture A = test: Emulsion paint inoculated three times with bacteria mixture A, live bacteria count CFU/g; format: cell-based; details: for CFU/g after inoculation: emulsion paint, 7 d
From the text: In example 34, the synergistic interaction between guanidine and a zinc compound (zinc oxide) with respect to microbial infestation was examined in an emulsion paint by adding particular amounts of guanidine in the form of guanidine hydrochloride and a zinc compound in the form of zinc oxide, and tested for stability to microbial infestation. The paint tested was an emulsion paint based on styrene-acrylate binder (PVK 77%, pH 8.8) for indoor use, produced in the laboratory, without addition of the usual preservatives.
The samples were inoculated repeatedly, three times in total, with a bacterial cell suspension of the following composition (2% v/w).
• Alcaligenes faecalis NCIMB 13145 • Escherichia coli DSM 13631 • Burkholderia cepacia DSM 9241 • Staphylococcus aureus DSM 799 • Pseudomonas aeruginosa DSM 50071 • Pseudomonas putida DSM 13624
The cell suspension of the bacteria mixture A was produced by growing the individual bacteria at 30° C. for 24 h in liquid culture on a shaker. The growth medium used for the bacteria was Müller-Hinton liquid medium. After growing, the individual liquid cultures were centrifuged, and the cells were resuspended in physiological saline solution. In order to adjust the mixture to a total cell count of 10^9/ml, the individual bacteria suspensions, if necessary, were diluted accordingly before being combined with saline solution. The cell count of the inoculum was determined in each case by chamber counting.
After each inoculation and after incubation at 30° C. for 7 days, microbial infestation was evaluated in the samples by determining the live bacteria count per g of paint (colony-forming units, CFU/g). The CFU/g was determined each time by taking an aliquot (1 g) from the previously homogenized sample and running a serial decadic dilution series in physiological saline solution (0.9% NaCl) by streaking on tryptic soy agar, followed by incubation of the agar plates at 30° C. for 48 h.

[2] = mixture with guanidine, Qa, 48 hours at 30° C.

Structure (SMILES): OCCCc1ccccc1
- Synergy index Qa/QA + Qb/QB ([1]; guanidine and phenylpropanol, Qa): 1.00
- QB: Concentration of phenylpropanol as the sole agent that shows an endpoint ([1]; phenylpropanol alone, 48 hours at 30° C.): 2000 ppm

Structure (SMILES): CCC(N)(CO)CO [AEPD, 2-aminoethylpropane-1,3-diol]
- QB: Concentration of AEPD as the sole agent that shows an endpoint ([1]; AEPD alone, 48 hours at 30° C.): 5000 ppm
- Synergy index Qa/QA + Qb/QB ([1]; guanidine and AEPD, Qa): 1.00

Structure (SMILES): CC(C)(N)CO [AMP, 2-amino-2-methyl-1-propanol]
- QB: Concentration of AMP as the sole agent that shows an endpoint ([1]; AMP alone, 48 hours at 30° C.): 2500 ppm
- Synergy index Qa/QA + Qb/QB ([1]; guanidine and AMP, Qa): 1.00

Structure (SMILES): CCCCn1sc2ccccc2c1=O [BBIT, N-butyl-1,2-benzisothiazolin-3-one]
- QB: Concentration of BBIT as the sole agent that shows an endpoint ([1]; BBIT alone, 48 hours at 30° C.): 400 ppm
- Synergy index Qa/QA + Qb/QB ([1]; guanidine and BBIT, Qa): 1.00

Structure (SMILES): N#CCCC(Br)(C#N)CBr (centres unmarked) [DBDCB, dibromodicyanobutane]
- QB: Concentration of DBDCB as the sole agent that shows an endpoint ([1]; DBDCB alone, 48 hours at 30° C.): 250 ppm
- Synergy index Qa/QA + Qb/QB ([1]; guanidine and DBDCB, Qa): 1.00

Structure (SMILES): N#CC(Br)(Br)C(N)=O [DBNPA, dibromonitrilopropionamide]
- QB: Concentration of DBNPA as the sole agent that shows an endpoint ([1]; DBNPA alone, 48 hours at 30° C.): 25 ppm
- Synergy index Qa/QA + Qb/QB ([1]; guanidine and DBNPA, Qa): 1.00

Structure (SMILES): O=C(O)CN(CCN(CC(=O)O)CC(=O)O)CC(=O)O [EDTA, ethylenediaminetetraacetic acid]
- QB: Concentration of EDTA as the sole agent that shows an endpoint ([1]; EDTA alone, 48 hours at 30° C.): 300 ppm
- Synergy index Qa/QA + Qb/QB ([1]; guanidine and EDTA, Qa): 1.00
- Qb (EDTA): Concentration of EDTA in the mixture that shows an endpoint [1, 2]: 250 ppm and 200 ppm and 175 ppm and 125 ppm

Structure (SMILES): CCCCC(CC)COCC(O)CO (centres unmarked) [EHG, ethylhexylglycerol]
- QB: Concentration of EHG as the sole agent that shows an endpoint ([1]; EHG alone, 48 hours at 30° C.): 2000 ppm
- Synergy index Qa/QA + Qb/QB ([1]; guanidine and EHG, Qa): 1.00

Structure (SMILES): CC(O)(P(=O)(O)O)P(=O)(O)O [HEDP, (1-hydroxyethylidene)bisphosphonic acid]
- QB: Concentration of HEDP as the sole agent that shows an endpoint ([1]; HEDP alone, 48 hours at 30° C.): 300 ppm
- Synergy index Qa/QA + Qb/QB ([1]; guanidine and HEDP, Qa): 1.00
- Qb (HEDP): Concentration of HEDP in the mixture that shows an endpoint [1, 2]: 1000 ppm

Structure (SMILES): Cn1sc2ccccc2c1=O [MBIT, N-methyl-1,2-benzisothiazolin-3-one]
- QB: Concentration of MBIT as the sole agent that shows an endpoint ([1]; MBIT alone, 48 hours at 30° C.): 300 ppm
- Synergy index Qa/QA + Qb/QB ([1]; guanidine and MBIT, Qa): 1.00

Structure (SMILES): NCCO [MEA, monoethanolamine]
- QB: Concentration of MEA as the sole agent that shows an endpoint ([1]; MEA alone, 48 hours at 30° C.): 2000 ppm
- Synergy index Qa/QA + Qb/QB ([1]; guanidine and MEA, Qa): 1.00

Structure (SMILES): Cn1sccc1=O [MIT, 2-methyl-4-isothiazolin-3-one]
- QB: Concentration of MIT as the sole agent that shows an endpoint ([1]; MIT alone, 48 hours at 30° C.): 75 ppm
- Synergy index Qa/QA + Qb/QB ([1]; guanidine and MIT, Qa): 1.00

Structure (SMILES): CCCCCCCCn1sccc1=O [OIT, octylisothiazolinone]
- QB: Concentration of OIT as the sole agent that shows an endpoint ([1]; OIT alone, 48 hours at 30° C.): 250 ppm
- Synergy index Qa/QA + Qb/QB ([1]; guanidine and OIT, Qa): 1.00

Structure (SMILES): [O]=[Zn] [Zinc oxide, zinc oxide]
- CFU/g after inoculation (bacteria mixture A; Zinc oxide 125 ppm (100 ppm Zn), 1. inoculation): 9.4 × 10^5 CFU/g
- CFU/g after inoculation (bacteria mixture A; Zinc oxide 125 ppm (100 ppm Zn), 2. inoculation): >10^6 CFU/g
- CFU/g after inoculation (bacteria mixture A; Zinc oxide 125 ppm (100 ppm Zn), 3. inoculation): >10^6 CFU/g
- CFU/g after inoculation (bacteria mixture A; Zinc oxide 250 ppm (201 ppm Zn), 1. inoculation): 2.2 × 10^4 CFU/g
- CFU/g after inoculation (bacteria mixture A; Zinc oxide 250 ppm (201 ppm Zn), 2. inoculation): >10^6 CFU/g
- CFU/g after inoculation (bacteria mixture A; Zinc oxide 250 ppm (201 ppm Zn), 3. inoculation): >10^6 CFU/g
- CFU/g after inoculation (bacteria mixture A; Zinc oxide 500 ppm (402 ppm Zn), 1. inoculation): 6.6 × 10^4 CFU/g
- CFU/g after inoculation (bacteria mixture A; Zinc oxide 500 ppm (402 ppm Zn), 2. inoculation): >10^6 CFU/g
- CFU/g after inoculation (bacteria mixture A; Zinc oxide 500 ppm (402 ppm Zn), 3. inoculation): >10^6 CFU/g
- CFU/g after inoculation (bacteria mixture A; Zinc oxide 1000 ppm (803 ppm Zn), 1. inoculation): 9.9 × 10^3 CFU/g
- CFU/g after inoculation (bacteria mixture A; Zinc oxide 1000 ppm (803 ppm Zn), 2. inoculation): >10^6 CFU/g
- CFU/g after inoculation (bacteria mixture A; Zinc oxide 1000 ppm (803 ppm Zn), 3. inoculation): >10^6 CFU/g
- CFU/g after inoculation (bacteria mixture A; Zinc oxide 2500 ppm (2009 ppm Zn), 1. inoculation): <100 CFU/g
- CFU/g after inoculation (bacteria mixture A; Zinc oxide 2500 ppm (2009 ppm Zn), 2. inoculation): <100 CFU/g
- CFU/g after inoculation (bacteria mixture A; Zinc oxide 2500 ppm (2009 ppm Zn), 3. inoculation): <100 CFU/g
- Synergy index Qa/QA + Qb/QB (bacteria mixture A; guanidine and zinc in emulsion paint, Qa, Qb): 1.00
- QB: Concentration of zinc as the sole agent that shows an endpoint (bacteria mixture A; zinc (added as zinc oxide) alone in emulsion paint, endpoint after 3 inoculations up to a maximum of 1000 CFU/g): 2009 ppm

Structure (SMILES): O=C(O)c1ccccc1 [benzoic acid]
- QB: Concentration of benzoic acid as the sole agent that shows an endpoint ([1]; benzoic acid (added as sodium benzoate) alone, MHB adjusted to pH 5.5, 48 hours at 30° C.): 1680 ppm
- Synergy index Qa/QA + Qb/QB ([1]; guanidine and benzoic acid, Qa, pH 5.5): 1.00
